{"source": "patent US20130244953A1", "about": "“DUAL SECURED THERAPEUTIC PEPTIDE DELIVERY SYSTEM” (priority 2011, published 2013)", "tested_on": "rat red blood cells", "assay": "Hemolytic assay", "assay_type": "cell-based", "details": "1 μM melittin, 37° C., 1 hour, pH 7.4", "experimental": "Hemolytic assay: Rat blood was used to compare hemolytic effects of free melittin, SSNS, and DSNS using DI water as positive control and PBS as negative control. Briefly, rat red blood cells were washed using 210 mM sodium chloride and dispersed in phosphate buffer saline (pH 7.4), To the SSNS, DSNS and free melittin corresponding to melittin concentration of 0.1 to 10 μM, the same amount of red blood cells was added and incubated at 37° C. for 1 hour. Following, each sample was centrifuged at 300 rcf for 2 min. and the optical density of supernatant was measured (λ=405 nm.) for the quantification of lysed cell amount. The results are shown graphically in FIG. 5 and in the corresponding photographs of FIG. 6."}
{"molecule": "CC[C@H](C)[C@H](NC(=O)CN)C(=O)NCC(=O)N[C@@H](C)C(=O)N[C@H](C(=O)N[C@@H](CC(C)C)C(=O)N[C@@H](CCCCN)C(=O)N[C@H](C(=O)N[C@@H](CC(C)C)C(=O)N[C@H](C(=O)N[C@H](C(=O)NCC(=O)N[C@@H](CC(C)C)C(=O)N1CCC[C@H]1C(=O)N[C@@H](C)C(=O)N[C@@H](CC(C)C)C(=O)N[C@H](C(=O)N[C@@H](CO)C(=O)N[C@@H](Cc1c[nH]c2ccccc12)C(=O)N[C@H](C(=O)N[C@@H](CCCCN)C(=O)N[C@@H](CCCNC(=N)N)C(=O)N[C@@H](CCCCN)C(=O)N[C@@H](CCCNC(=N)N)C(=O)N[C@@H](CCC(N)=O)C(=O)N[C@@H](CCC(N)=O)C(N)=O)[C@@H](C)CC)[C@@H](C)CC)[C@@H](C)O)[C@@H](C)O)C(C)C)C(C)C", "note": "[free melittin, melittin]", "values": [{"measurement": "red blood cell lysis", "result": "completely lysed the cells"}]}
